From article PMC7211837, “Design, synthesis, molecular modelling and in vitro screening of monoamine oxidase inhibitory activities of novel quinazolyl hydrazine derivatives” (Royal Society Open Science, 2020)
“And” between values parts separate entries of the source, which are not always exact repeats. Equal values may be shown once. “Also recorded” adds a separate entry of the source.

Columns and labels:
[1] = target: T1, membrane-bound human MAO-A (Homo sapiens, UniProt P21397); test: MAO-A inhibition, H2O2/horseradish peroxidase coupled fluorescence assay with tyramine; type: biochemical; conditions: for inhibition at 10 µM: read-out: % inhibition at 10 μM hMAO-A, 10 μM compound, tyramine 0.8 mM (2 × KM), average of two independent experiments; for IC50 (μM) hMAO-A: tyramine at 2 × KM, seven concentrations 0.01–300 µM, ± s.d., two independent experiments; for inhibition of MAO-A compared with MAO-B in the screen: screen at 10 µM
T1 sequence (P21397 1-527): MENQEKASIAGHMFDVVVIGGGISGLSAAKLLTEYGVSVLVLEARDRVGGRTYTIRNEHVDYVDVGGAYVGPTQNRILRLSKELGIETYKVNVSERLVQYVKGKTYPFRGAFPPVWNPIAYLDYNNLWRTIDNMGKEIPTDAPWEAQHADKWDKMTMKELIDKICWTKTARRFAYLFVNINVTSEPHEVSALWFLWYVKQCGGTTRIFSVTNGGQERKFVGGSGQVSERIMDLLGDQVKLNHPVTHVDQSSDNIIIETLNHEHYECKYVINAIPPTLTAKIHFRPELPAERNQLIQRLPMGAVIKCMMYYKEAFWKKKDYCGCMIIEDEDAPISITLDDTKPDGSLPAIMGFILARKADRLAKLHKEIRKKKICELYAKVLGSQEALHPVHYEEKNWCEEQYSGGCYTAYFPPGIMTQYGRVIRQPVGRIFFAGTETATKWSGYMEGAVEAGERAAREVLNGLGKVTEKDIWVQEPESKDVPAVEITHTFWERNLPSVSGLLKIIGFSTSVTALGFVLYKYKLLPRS
Description: (§1) Incomplete inhibition of activity could arise either from indirect effects on these enzymes or from the compounds acting as substrates at the highest concentrations.
(§2) The activity of MAO was determined using the coupled assay method of [41, 42] in which the product, H2O2, acts with horseradish peroxidase to convert 10-acetyl-3,7-dihydroxyphenoxazine to the fluorescent resorufin. […] The data were analysed using the equation for a three-parameter curve in Graphpad PRISM v. 4, and the % inhibition calculated from the top and bottom of the resulting curve.

[2] = target: T2, membrane-bound human MAO-B (Homo sapiens, UniProt P27338); test: MAO-B inhibition, H2O2/horseradish peroxidase coupled fluorescence assay with tyramine; type: biochemical; conditions: for maximum inhibition (%) hMAO-B: from dose–response curve, in parentheses after IC50, given if less than 95%; for inhibition at 10 µM: read-out: % inhibition at 10 μM hMAO-B, 10 μM compound, tyramine 0.32 mM (2 × KM), average of two independent experiments; for IC50: tyramine at 2 × KM, seven concentrations 0.01–300 µM, ± s.d., two independent experiments, read-out: IC50 (μM) hMAO-B
T2 sequence (P27338 1-520): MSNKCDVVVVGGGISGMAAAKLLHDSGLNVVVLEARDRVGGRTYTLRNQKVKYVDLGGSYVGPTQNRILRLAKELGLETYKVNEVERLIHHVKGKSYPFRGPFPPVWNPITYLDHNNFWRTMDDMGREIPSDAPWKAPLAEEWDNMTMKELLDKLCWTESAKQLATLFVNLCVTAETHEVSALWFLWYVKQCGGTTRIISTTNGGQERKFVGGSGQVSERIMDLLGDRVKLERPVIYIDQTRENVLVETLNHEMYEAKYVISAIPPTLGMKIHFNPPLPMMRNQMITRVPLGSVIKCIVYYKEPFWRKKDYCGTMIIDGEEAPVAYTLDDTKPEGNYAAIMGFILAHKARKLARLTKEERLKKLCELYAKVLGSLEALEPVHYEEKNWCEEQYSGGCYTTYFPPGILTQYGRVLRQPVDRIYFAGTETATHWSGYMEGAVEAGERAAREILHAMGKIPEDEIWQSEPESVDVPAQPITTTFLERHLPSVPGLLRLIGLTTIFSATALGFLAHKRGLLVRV
Description: as §1, §2

Row | SMILES | inhibition at 10 µM [1] [%] | maximum inhibition (%) hMAO-B [2] [%] | inhibition at 10 µM [2] [%] | IC50 [2] | melting point | further results
1 | Cc1nc2ccccc2c(=O)n1/N=C/c1ccc(O)cc1 [14b] | 14 | 77 | 52 | 4.64 ± 0.41 µM |  | selectivity MAO-A versus MAO-B ([1]; from IC50 values on MAO-A and MAO-B): B-selective; IC50 (μM) hMAO-A [1]: no inhibition; mechanism of inhibition of MAO-B ([2]; 30 min preincubation, dilution ×100, increasing substrate concentration): competitive inhibition
2 | COC(=O)CN1C(=O)c2cc(Cl)ccc2NC1c1ccc(OC)cc1 (centres unmarked) [3c, Methyl 2-(6-chloro-2-(4-methoxyphenyl)-4-oxo–1,2-dihydroquinazolin-3(4H)-yl)acetate] | -3 |  | 10 |  | 148 to 150 °C | 
3 | COc1ccc(C=NNC(=O)CN2C(=O)c3ccccc3NC2c2ccccc2)cc1 (centres unmarked) [5c, N'-(4-Methoxybenzylidene)-2-(4-oxo-2-phenyl-1,2-dihydroquinazolin-3(4H)-yl)acetohydrazide] |  |  |  |  | 210 to 212 °C | 
4 | Cc1nc2ccccc2c(=O)n1CC(=O)NN=Cc1ccc(O)cc1 [12b, N'-(4-Hydroxybenzylidene)-2-(2-methyl-4-oxoquinazolin-3(4H)-yl)acetohydrazide] | 16 |  | 16 | > 100 µM | 192 to 195 °C | inhibition of MAO-A compared with MAO-B in the screen [1]: equal inhibition of MAO-A and MAO-B; also recorded: equally inhibited
5 | COC(=O)CN1C(=O)c2ccccc2NC1c1ccccc1 (centres unmarked) [3a, Methyl-2-(4-oxo-2-phenyl-1,2-dihydroquinazolin-3(4H)-yl)acetate] | -6 | 40 | 38 | 5.28 ± 1.44 µM |  | IC50 (μM) hMAO-A [1]: none
6 | Cc1nc2ccccc2c(=O)n1N [compound 13] | -8 |  | 23 |  |  | 
7 | NNC(=O)Cn1c(-c2ccccc2)nc2ccccc2c1=O [compound 7, 2-(4-oxo-2-phenylquinazolin-3(4H)-yl)acetohydrazide] |  |  |  |  | 215 to 218 °C | 
8 | COc1ccc(C=NNC(=O)Cn2c(C)nc3ccccc3c2=O)cc1 [12c, N'-(4-Methoxybenzylidene)-2-(2-methyl-4-oxoquinazolin-3(4H)-yl)acetohydrazide] | 5 |  | 21 |  | > 229 °C (dec.) | 
9 | COc1ccc2c(c1)[nH]c1c(C)nccc12 [harmine, reference compound] | 100 |  | 17 | 11.6 ± 3.1 µM |  | 
10 | COc1ccc(/C=N/n2c(C)nc3ccccc3c2=O)cc1 [14c] | 8 | 73 | 44 | 6.75 ± 1.06 µM |  | 
11 | COc1ccc(C=NNC(=O)CN2C(=O)c3cc(Cl)ccc3NC2c2ccccc2)cc1 (centres unmarked) [5f, 2-(6-Chloro-4-oxo-2-phenyl-1,4-dihydroquinazolin-3(2H)-yl)-N'-(4-methoxybenzylidene)-acetohydrazide] |  |  |  |  | 138 to 140 °C | 
12 | C[C@H](NCc1ccc(OCc2cccc(F)c2)cc1)C(N)=O [safinamide, reference compound] | 11 |  |  |  |  | 
13 | Cc1nc2ccccc2c(=O)n1/N=C/c1ccccc1 [14a] | 5 | 77 | 40 | < 10 µM and 6.84 µM |  | IC50 (μM) hMAO-A [1]: does not inhibit MAO-A
14 | Cc1nc2ccccc2c(=O)n1CC(=O)NN [compound 11, 2-(2-Methyl-4-oxoquinazolin-3(4H)-yl)acetohydrazide] | 15 |  | 19 | > 100 µM |  | inhibition of MAO-A compared with MAO-B in the screen [1]: equal inhibition of MAO-A and MAO-B; also recorded: equally inhibited
15 | COC(=O)Cn1c(-c2ccccc2)nc2ccccc2c1=O [compound 8, Methyl 2-(4-oxo-2-phenylquinazolin-3(4H)-yl)acetate] |  |  |  |  | 115 to 116 °C | 
16 | COc1cc(/C=N/n2c(C)nc3ccccc3c2=O)ccc1O [14d] | 11 | 77 | 44 | 5.93 ± 1.02 µM |  | 
